Data reported in patent US20250186475A1, “METHODS OF TREATING MEDICAL CONDITIONS USING ISLATRAVIR OR A RELATED COMPOUND” (ROME Therapeutics, Inc., priority 2022, published 2025).
pIC50: −log10 of the molar value.

How the values were obtained:
[1] = biological target: T1, recombinant MBP-tagged LINE1 protein (238-1061) (Homo sapiens, UniProt O00370); test: Homogeneous time-resolved fluorescence (HTRF) LINE1 RT assay; format: biochemical; details: 25° C., 60 minutes, read-out: IC50 for inhibition of LINE1 reverse transcriptase
T1 construct: recombinant MBP-tagged LINE1 protein (238-1061); MBP; made in house
Experimental: The LINE1 reverse transcriptase homogeneous time-resolved fluorescence (HTRF) assay was performed with recombinant MBP-tagged LINE1 protein (238-1061) (generated and purified according to procedures in Dai L. et al. BMC Biochemistry 2011; 12:18) in a 384-well format. Test compound was serially diluted in DMSO and further diluted in the assay buffer (50 mM Tris-HCl, 50 mM KCl, 10 mM MgCl2, 10 mM DTT, pH 8.1) to achieve a final DMSO concentration of 1%. The serially diluted compound was mixed with 64 ng/well of LINE1 enzyme, 5 nM of pre-annealed template/biotin-primer pair (synthesized at Generay Biotechnology), 10 nM of Fluorescein-12-dATP fluorescent probe (Perkin Elmer), and 1 μM dGTP/dCTP/dTTP (Thermo Fisher Scientific) in the assay buffer. The template/biotin-primer sequences were as follows:
After incubating at 25° C. for 60 minutes, the detection reagent (20 mM EDTA with streptavidin-terbium cryptate, Cisbio Bioassay) in the PPI buffer (Cisbio Bioassay) was added, and the mixture was incubated at 25° C. for 30 minutes. At the end of the incubation, fluorescence was read at ex/em=337/485 nm and ex/em=337/520 nm on an Envision 2104 plate reader (Perkin Elmer). The fluorescence ratio at 520/485 nm was used for the calculation. […] The IC50 was calculated by fitting the compound dose inhibition curve with a 4-parameter non-linear regression equation.

[2] = test system: THP1-Dual™ KO-TREX1 cells; test: Cellular assay for altering IFN production in THP1 TREX1 KO cells; format: cell-based; details: in the presence of 1 μM 5-aza-2′-deoxycytidine, five days
Experimental: (§1) THP1-Dual™ KO-TREX1 cells were purchased from Invivogen (cat #thpd-kotrex). The THP1-Dual™ KO-TREX1 cells were cultured in RPMI 1640, 10% heat-inactivated fetal bovine serum, 25 mM HEPES, 10 μg/mL Blasticidin, and 100 μg/mL Zeocin. THP1-Dual™ KO-TREX1 cells were treated with a dose titration of test compound in the presence of 1 μM 5-aza-2′-deoxycytidine (Sigma, cat #189825). Type 1 Interferon and cell viability were assessed after five days of treatment.
(§2) Stock solution of test compound was prepared in DMSO followed by a three-fold dilution in DMSO. Additional 50× dilution was prepared in cell culture media for each dilution. 10 μL of diluted test compound was then added to a 384-well plate.
(§3) THP1-Dual™ KO-TREX1 cells were treated with 1 μM 5-aza-2′-deoxycytidine. THP1-Dual™ KO-TREX1 cells (50 μL) were added to each well of the 384-well plate containing test compound titration at 10,000 cells/well. Cells were incubated at 37° C., 5% CO2 in a humidified incubator for five days. On day five, 20 μL of cell supernatant was transferred to a 384-well, white-walled plate, followed by addition to each well of 50 μL of QUANTI-LUC solution containing stabilizer. Luminescence was detected on a plate reader according to manufacturer's instructions. […]

[3] = biological target: T2, LINE1 reverse transcriptase (Homo sapiens, UniProt O00370); test: Transient artificial-intron Cis LINE1 reporter assay; format: cell-based; details: HEK 293 cells, FLuc/RLuc ratio, read-out: IC50 for inhibition of FLuc luminescence
T2 construct: expressed in transfected cells
Experimental: Intron-disrupted Firefly luciferase (FLuc) expression cassettes were generated as described by Xie, Y. et al. “Characterization of L1 retrotransposition with high-throughput dual-luciferase assays,” Nucleic Acid Res. (2011) Vol. 39, No. 3, e16. In addition, the plasmid contained an intact Renilla luciferase (RLuc) expression cassette on the vector backbone, in order to normalize transfection efficiency and measure potential cell toxicity.
HEK 293 cells were seeded in 96-well plates at 1,000 cells/well in 55 μL and grown for 24 hours. Cells were transfected with FuGeneHD (Promega) following the manufacturer's protocol. Each well received 0.133 ng plasmid, 0.4 μL FuGeneHD reagent, and 4.5 μL GlutaMAX-I-supplemented Opti-MEM I reduced-serum medium (Invitrogen). Cells were simultaneously treated with test compound serially diluted starting at 100 μM in a 3-fold dilution dose response.
Luminescence was measured using the Dual-Glo Luciferase Assay System (Promega) following the manufacturer's instructions. The ratio between FLuc and RLuc gene expression was used to report LINE1 activity.

[4] = test system: IFN-β production in PBMCs; test: Decitabine-stimulated human PBMC assay; format: cell-based; details: PBMCs with anti-CD3/anti-CD28 and 10 μM decitabine, 5 days
Experimental: EasySep buffer (32 mL, Stem Cell, cat. #20144) was used to dilute 8 mL of LRSC buffy coat (from fresh Leukopak) with gentle mixing. The diluted buffy coat (20 mL) was transferred into each of two SepMate 50 tubes, and the tubes were filled with 15 mL of Lyphoprep (Stem Cell, ct. #07851) density gradient. The SepMate tubes were then centrifuged at […] for 10 minutes at room temperature with the brake on. The top layer of supernatant was collected in SepMate tubes by quickly pouring it into a new 50 mL conical tube. The PBMCs were washed with EasySep buffer x2 by centrifuging at 300G for 5 minutes. The cells were resuspended in 30 mL of EasySep and centrifuged at 100G for 5 minutes with the brake off, and the platelets were removed. The cells were then resuspended in 6 mL of 1×RBC lysis buffer (InvitroGen) and incubated at 37° C. for 5 minutes. Then, 25 mL of EasySep buffer was mixed into the tube and it was centrifuged at 300G for 5 minutes. The cells were resuspended in 10 mL of EasySep buffer and the cells were then counted with Cellometer (AO/PI). The PBMCs were resuspended in RPMI1640 (ThermoFisher)+10% FBS (HyClone)+p/s at 3×10^6/mL. The PBMCs (100 μL, 300 k PBMCs) were then seeded in a 96-well flat bottom microplate (Corning) that had been precoated with 100 μL of anti-CD3 antibody (10 μg/mL in PBS, Biolegend) or PBS at 4° C., one day before the assay was commenced. […]

[5] = test system: THP1-Dual™ KO-TREX1 cells; test: CellTiter-Glo cell viability in THP1 TREX1 KO cells; format: cell-based; details: Homo sapiens, 120 h, in the presence of 1 μM 5-aza-2′-deoxycytidine, five days, read-out: CellTiter-Glo inhibition IC50
Experimental: as §1, §2
as §3, with “On day five, 20 μL of cell supernatant was transferred to a 384-well, white-walled plate, followed by addition to each well of 50 μL of QUANTI-LUC solution containing stabilizer.” left out
The remaining cells were assessed for cell viability by adding 30 μl of CellTiter-Glo (Promega, G9683) solution to each well, and placed on a shaker for 10 minutes at room temperature. Luminescence was detected on a plate reader, according to manufacturer's instructions. […]

[6] = biological target: T2, LINE1 reverse transcriptase; test: Stable artificial-intron Cis LINE1 reporter assay (HeLa Tet-On 3G); format: cell-based; details: HeLa L1 reporter cells, doxycycline induced, 72 h; read-out: IC50 for inhibition of FLuc luminescence
From the text: A stable HeLa Tet-On 3G (Takara, cat no 631183) cell line expressing a bi-directional inducible LINE1 construct was generated as described in Xie, Y. et al. “Cell division promotes efficient retrotransposition in a stable L1 reporter cell line,” Mobile DNA (2013) 4:10. Single cell clones were screened for high Luciferase expression and the highest expression Firefly expressing clone was chosen for compound testing.
Test compound was serially diluted in DMSO and spotted in 96-well plates. Subsequently the HeLa L1 artificial-intron reporter cells were plated into the compound-containing wells (8,000 cells/well), and the cells were induced for reporter expression with doxycycline (Sigma cat no D9891) at a final concentration of 500 ng/mL. Luminescence was measured 72 h after plating using the Dual-Glo Luciferase Assay System (Promega cat no E2940) following the manufacturer's instructions. The Firefly Luciferase activity was used to report LINE1 activity.

[7] = test system: SW756 cells; test: Cancer cell viability assay with 3D cell colonies (CellTiter-Glo), SW756; format: cell-based; details: 7 days
Experimental: (§4) Ovarian cancer cell line SK-OV-3 cells were cultured in McCoy's 5a media containing 10% FBS. Ovarian cancer cell line OVCAR-8 cells were cultured in RPMI media containing 10% FBS. Additional cancer cell lines were cultured in the following media: • Ovarian cancer SW756 cells—L-15 (100% air)+10% FBS • Esophageal cancer TE-1 cells—RPMI-1640+10% FBS • Esophageal cancer KYSE-410 cells—RPMI-1640+5˜10% FBS • Esophageal cancer KYSE-70 cells—RPMI-1640+10% h.i.FBS. • Pharyngeal cancer FaDu cells—MEM+0.01 mM NEAA+10% FBS
(§5) Cell colony formation was tested using a 3D methylcellulose-based CellTiter-Glo (CTG) viability assay (Cat. No: G7573, Promega). Briefly, cells were inoculated into 96-well plates (at 1,500 cells per well) into a solution of 0.65% methylcellulose in growth media and incubated overnight at 37° C. in 5% CO2. The next day, serially diluted test compound (islatravir) or positive control (cisplatin, Cat. No. 6J015A89, Qilu Pharma) were added at the indicated concentrations, and the cells were incubated for 7 days. On day seven, 100 μL of CTG reagent was added, and the plates were incubated at room temperature for 20 min. Luminescence was read on an Envision Multi Label Reader according to manufacturer's instructions. IC50 values were determined using the following calculation: […]

[8] = test system: SK-OV-3 cells; test: Cancer cell viability assay with 3D cell colonies (CellTiter-Glo), SK-OV-3; format: cell-based; details: 3D tumorsphere growth, 7 days
Experimental: as §4, §5

[9] = test system: FaDu cells; test: Cancer cell viability assay with 3D cell colonies (CellTiter-Glo), FaDu; format: cell-based; details: 7 days
Experimental: as §4, §5

[10] = test system: KYSE-410 cells; test: Cancer cell viability assay with 3D cell colonies (CellTiter-Glo), KYSE-410; format: cell-based; details: 7 days
Experimental: as §4, §5

[11] = test system: OVCAR-8 cells; test: Cancer cell viability assay with 3D cell colonies (CellTiter-Glo), OVCAR-8; format: cell-based; details: 3D tumorsphere growth, 7 days
Experimental: as §4, §5

[12] = test system: TE-1 cells; test: Cancer cell viability assay with 3D cell colonies (CellTiter-Glo), TE-1; format: cell-based; details: 7 days
Experimental: as §4, §5

[13] = test system: KYSE-70 cells; test: Cancer cell viability assay with 3D cell colonies (CellTiter-Glo), KYSE-70; format: cell-based; details: 7 days
Experimental: as §4, §5

Compound `C#C[C@]1(COP(=O)(O)OP(=O)(O)OP(=O)(O)O)O[C@@H](n2cnc3c(N)nc(F)nc32)C[C@@H]1O` has a pIC50 [1] of 7.91.
In the case of `C#C[C@]1(CO)O[C@@H](n2cnc3c(N)nc(Cl)nc32)C[C@@H]1O` [4′-ethynyl-2-chloro-2′-deoxyadenosine], the “changes in IFN levels (% induction)” value [2] was “induction of IFN”, the pIC50 [3] was 8.10 and the “production of IFN-β” value [4] was “activated production of IFN-β”. The pIC50 [5] was < 4.70 and the pIC50 [6] was 8.52.
`N.N.[Cl][Pt][Cl]` [Cisplatin, cisplatin] was tested, and the IC50 [7] was ≤ 10 µM, the IC50 [8] was 2.24 µM and the IC50 [9] was ≤ 10 µM. For the same compound, the IC50 [10] was > 30 µM, the IC50 [11] was 3.29 µM and the IC50 [12] was ≤ 10 µM. For the same compound, the IC50 [13] was ≤ 10 µM.
